Test results taken from patent US20120165331A1, “Di/tri-aza-spiro-C9-C11alkanes” (priority 2010, published 2012).

Tests used:
[1] = target: T1, human orexin 1 receptor (Homo sapiens, UniProt O43613); test: Calcium accumulation in cells (FLIPR), antagonism of orexin A, human orexin 1 receptor; format: cell-based; conditions: for Ki: calcium accumulation, antagonism of orexin A, Cheng-Prusoff corrected, read-out: FLIPR hOx1R Ki; for inhibition at 10 µM: measured at a concentration of 10 μM of compound, read-out: FLIPR hOx1R % inhibition
T1 construct: expressed in transfected cells
T1 sequence (O43613 1-425): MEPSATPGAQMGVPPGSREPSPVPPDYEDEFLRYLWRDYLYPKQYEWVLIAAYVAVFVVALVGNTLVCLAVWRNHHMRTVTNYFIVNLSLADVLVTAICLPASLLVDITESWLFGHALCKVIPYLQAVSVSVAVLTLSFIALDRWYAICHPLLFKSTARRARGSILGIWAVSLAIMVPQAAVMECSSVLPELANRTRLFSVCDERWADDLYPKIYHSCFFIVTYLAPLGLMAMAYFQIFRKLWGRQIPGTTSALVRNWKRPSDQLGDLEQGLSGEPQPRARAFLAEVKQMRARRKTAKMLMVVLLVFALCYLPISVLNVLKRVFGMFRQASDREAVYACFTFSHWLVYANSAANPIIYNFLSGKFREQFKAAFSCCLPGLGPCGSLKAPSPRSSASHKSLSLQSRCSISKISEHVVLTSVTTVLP

[2] = target: T2, human orexin 2 receptor (Homo sapiens, UniProt O43614); test: Calcium accumulation in cells (FLIPR), antagonism of orexin A, human orexin 2 receptor; format: cell-based; conditions: for Ki: calcium accumulation, antagonism of orexin A, Cheng-Prusoff corrected, read-out: FLIPR hOx2R Ki; for inhibition at 10 µM: measured at a concentration of 10 μM of compound, read-out: FLIPR hOx2R % inhibition
T2 construct: expressed in transfected cells
T2 sequence (O43614 1-444): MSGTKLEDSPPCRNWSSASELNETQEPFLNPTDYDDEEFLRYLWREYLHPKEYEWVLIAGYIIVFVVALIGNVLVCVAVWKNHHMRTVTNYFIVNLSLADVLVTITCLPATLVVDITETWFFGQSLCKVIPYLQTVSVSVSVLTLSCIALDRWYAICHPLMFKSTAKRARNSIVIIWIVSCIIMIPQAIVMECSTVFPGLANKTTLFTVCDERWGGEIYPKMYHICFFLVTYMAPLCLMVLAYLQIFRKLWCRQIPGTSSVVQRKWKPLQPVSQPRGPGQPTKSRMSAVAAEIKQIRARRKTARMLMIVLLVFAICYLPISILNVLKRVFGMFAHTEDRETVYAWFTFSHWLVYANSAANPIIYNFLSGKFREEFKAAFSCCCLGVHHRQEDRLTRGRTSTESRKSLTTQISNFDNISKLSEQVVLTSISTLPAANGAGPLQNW

| SMILES | Ki [1] | Ki [2] | inhibition at 10 µM [1] | inhibition at 10 µM [2] |
| --- | --- | --- | --- | --- |
| Cc1noc(-c2ccnc(N3CCC4(CCN(Cc5c[nH]c6ccccc56)C4=O)C3)c2)n1 (stereo not drawn) [Example 5.34, 2-((1H-indol-3-yl)methyl)-7-(4-(3-methyl-1,2,4-oxadiazol-5-yl)pyridin-2-yl)-2,7-diazaspiro[4.4]nonan-1-one] | 2150 nM | 1470 nM |  |  |
| O=C1N(Cc2c[nH]c3ccccc23)CCC12CCN(c1cc(N3CCCC3)ncn1)C2 (stereo not drawn) [Example 5.35, 2-((1H-indol-3-yl)methyl)-7-(6-(pyrrolidin-1-yl)pyrimidin-4-yl)-2,7-diazaspiro[4.4]nonan-1-one] | 1770 nM | 2720 nM |  |  |
| COc1nc(C)cc(N2CCC3(CCN(Cc4c[nH]c5ccccc45)C3=O)C2)n1 (stereo not drawn) [Example 5.36, 2-((1H-indol-3-yl)methyl)-7-(2-methoxy-6-methylpyrimidin-4-yl)-2,7-diazaspiro[4.4]nonan-1-one] |  | 927 nM | 18% |  |
| Cc1csc(N2CCC3(CCN(Cc4c[nH]c5ccccc45)C3=O)C2)n1 (stereo not drawn) [Example 5.37, 2-((1H-indol-3-yl)methyl)-7-(4-methylthiazol-2-yl)-2,7-diazaspiro[4.4]nonan-1-one] | 3590 nM | 1410 nM |  |  |
| COc1cc(N2CCC3(CCN(Cc4c[nH]c5ccccc45)C3=O)C2)n2nccc2n1 (stereo not drawn) [Example 5.38, 2-((1H-indol-3-yl)methyl)-7-(5-methoxypyrazolo[1,5-a]pyrimidin-7-yl)-2,7-diazaspiro[4.4]nonan-1-one] | 2410 nM | 1020 nM |  |  |
| CC(C)c1ccnc(N2CCC3(CCN(Cc4c[nH]c5ccccc45)C3=O)C2)n1 (stereo not drawn) [Example 5.39, 2-((1H-indol-3-yl)methyl)-7-(4-isopropylpyrimidin-2-yl)-2,7-diazaspiro[4.4]nonan-1-one] | 1210 nM | 283 nM |  |  |
| Cc1cn2ccnc(N3CCC4(CCN(Cc5c[nH]c6ccccc56)C4=O)C3)c2n1 (stereo not drawn) [Example 5.40, 2-((1H-indol-3-yl)methyl)-7-(2-methylimidazo[1,2-a]pyrazin-8-yl)-2,7-diazaspiro[4.4]nonan-1-one] | 1730 nM | 188 nM |  |  |
| O=C1N(Cc2c[nH]c3ccccc23)CCC12CCN(c1nccc(C(F)(F)F)n1)C2 (stereo not drawn) [Example 5.41, 2-((1H-indol-3-yl)methyl)-7-(4-(trifluoromethyl)pyrimidin-2-yl)-2,7-diazaspiro[4.4]nonan-1-one] | 2410 nM | 343 nM |  |  |
| COc1cc(C)nc(N2CCC3(CCN(Cc4ccccc4-c4nc(C)no4)C3=O)C2)n1 (stereo not drawn) [Example 5.42, 7-(4-methoxy-6-methylpyrimidin-2-yl)-2-(2-(3-methyl-1,2,4-oxadiazol-5-yl)benzyl)-2,7-diazaspiro[4.4]nonan-1-one] | 1950 nM | 180 nM |  |  |
| COc1cc(C)nc(N2CCC3(CCN(Cc4nn(C)nc4Br)C3=O)C2)n1 (stereo not drawn) [Example 5.46, 2-((5-bromo-2-methyl-2H-1,2,3-triazol-4-yl)methyl)-7-(4-methoxy-6-methylpyrimidin-2-yl)-2,7-diazaspiro[4.4]nonan-1-one] |  |  | < 10% | 21% |
| O=C1N(Cc2c[nH]c3ccccc23)CCC12CCCN(c1cnc3ccccc3n1)C2 (stereo not drawn) [Example 6.1] | 1130 nM | 639 nM |  |  |
| COc1ccnc(N2CCC3(CCCN(Cc4c[nH]c5ncccc45)C3=O)C2)n1 (stereo not drawn) [Example 7.2, 7-((1H-Pyrrolo[2,3-b]pyridin-3-yl)methyl)-2-(4-methoxypyrimidin-2-yl)-2,7-diazaspiro[4.5]decan-6-one] | 3200 nM | 703 nM |  |  |
| COc1ccnc(N2CCC3(CCCN(Cc4n[nH]c5ccccc45)C3=O)C2)n1 (stereo not drawn) [Example 7.3, 7-((1H-Indazol-3-yl)methyl)-2-(4-methoxypyrimidin-2-yl)-2,7-diazaspiro[4.5]decan-6-one] | 1430 nM | 234 nM |  |  |
| COc1ccnc(N2CCC3(CCCN(Cc4ccccc4-c4nc(C)no4)C3=O)C2)n1 (stereo not drawn) [Example 7.5, 2-(4-Methoxypyrimidin-2-yl)-7-(2-(3-methyl-1,2,4-oxadiazol-5-yl)benzyl)-2,7-diazaspiro[4.5]decan-6-one] | 981 nM | 221 nM |  |  |
| COc1cccc(-c2nn(C)nc2CN2CCCC3(CCN(c4nccc(OC)n4)C3)C2=O)c1 (stereo not drawn) [Example 7.7, 7-((5-(3-Methoxyphenyl)-2-methyl-2H-1,2,3-triazol-4-yl)methyl)-2-(4-methoxypyrimidin-2-yl)-2,7-diazaspiro[4.5]decan-6-one] | 537 nM | 366 nM |  |  |
| O=C1N(Cc2c[nH]c3ccccc23)CCCC12CCN(c1nc3ccccc3o1)C2 (stereo not drawn) [Example 7.8, 7-((1H-Indol-3-yl)methyl)-2-(benzo[d]oxazol-2-yl)-2,7-diazaspiro[4.5]decan-6-one] | 98 nM | 168 nM |  |  |
| COc1cc(C)nc(N2CCC3(CCCN(Cc4c[nH]c5ncccc45)C3=O)C2)n1 (stereo not drawn) [Example 7.13, 7-((1H-pyrrolo[2,3-b]pyridin-3-yl)methyl)-2-(4-methoxy-6-methylpyrimidin-2-yl)-2,7-diazaspiro[4.5]decan-6-one] | 299 nM | 115 nM |  |  |
| Cc1cncc(N2CCC3(CCC(=O)N3Cc3cccc4[nH]ccc34)CC2)n1 [Example 8.2, 1-((1H-Indol-4-yl)methyl)-8-(6-methylpyrazin-2-yl)-1,8-diazaspiro[4.5]decan-2-one] |  | 133 nM | 12% |  |
| O=C1COCC2(CCN(c3cnc4ccccc4n3)CC2)N1Cc1c[nH]c2ccccc12 [Example 8.8, 1-((1H-Indol-3-yl)methyl)-9-(quinoxalin-2-yl)-4-oxa-1,9-diazaspiro[5.5]undecan-2-one] |  | 635 nM | 33% |  |
| Cn1ccc2c(CN3C(=O)COCC34CCN(c3cnc5ccccc5n3)CC4)cccc21 [Example 8.10, 1-((1-Methyl-1H-indol-4-yl)methyl)-9-(quinoxalin-2-yl)-4-oxa-1,9-diazaspiro[5.5]undecan-2-one] | 265 nM | 202 nM |  |  |
| O=C1COCC2(CCN(c3cnc4ccccc4n3)CC2)N1Cc1cccc(-c2cccnc2)c1 [Example 8.12, 1-(3-(Pyridin-3-yl)benzyl)-9-(quinoxalin-2-yl)-4-oxa-1,9-diazaspiro[5.5]undecan-2-one] | 232 nM |  |  | 30% |
| Cc1ccc(C)c(CN2C(=O)COCC23CCN(c2cncc(C)n2)CC3)c1 [Example 8.13, 1-(2,5-Dimethylbenzyl)-9-(6-methylpyrazin-2-yl)-4-oxa-1,9-diazaspiro[5.5]undecan-2-one] |  | 405 nM | < 10% |  |
| Cc1cncc(N2CCC3(CC2)COCC(=O)N3Cc2cccc3[nH]ccc23)n1 [Example 8.14, 1-((1H-Indol-4-yl)methyl)-9-(6-methylpyrazin-2-yl)-4-oxa-1,9-diazaspiro[5.5]undecan-2-one] |  | 506 nM | 14% |  |
| N#Cc1ccnc(N2CCC3(CC2)COCC(=O)N3Cc2cccc3[nH]ccc23)c1 [Example 8.16, 2-(1-((1H-Indol-4-yl)methyl)-2-oxo-4-oxa-1,9-diazaspiro[5.5]undecan-9-yl)isonicotinonitrile] |  | 1020 nM | < 10% |  |
| N#Cc1cccc(N2CCC3(CC2)COCC(=O)N3Cc2cccc3[nH]ccc23)n1 [Example 8.17, 6-(1-((1H-Indol-4-yl)methyl)-2-oxo-4-oxa-1,9-diazaspiro[5.5]undecan-9-yl)picolinonitrile] |  | 584 nM | 40% |  |
| N#Cc1ccnc(N2CCC3(CC2)COCC(=O)N3Cc2cccc3[nH]ccc23)n1 [Example 8.18, 2-(1-((1H-Indol-4-yl)methyl)-2-oxo-4-oxa-1,9-diazaspiro[5.5]undecan-9-yl)pyrimidine-4-carbonitrile] |  | 1010 nM | 25% |  |
| Cc1ccnc(N2CCC3(CC2)COCC(=O)N3Cc2cccc3[nH]ccc23)n1 [Example 8.19, 1-((1H-Indol-4-yl)methyl)-9-(4-methylpyrimidin-2-yl)-4-oxa-1,9-diazaspiro[5.5]undecan-2-one] |  | 697 nM | 28% |  |
| O=C1OCC2(CCN(c3cnc4ccccc4n3)CC2)N1Cc1c[nH]c2ccccc12 [Example 8.21] |  | 480 nM | 33% |  |
| Cc1cncc(N2CCC3(CC2)COC(=O)N3Cc2c[nH]c3ccccc23)n1 [Example 8.23, 1-((1H-Indol-3-yl)methyl)-8-(6-methylpyrazin-2-yl)-3-oxa-1,8-diazaspiro[4.5]decan-2-one] |  |  | < 10% | 20% |
| Cc1cc(C)nc(N2CCC3(CC2)COC(=O)N3Cc2c[nH]c3ccccc23)n1 [Example 8.24, 1-((1H-Indol-3-yl)methyl)-8-(4,6-dimethylpyrimidin-2-yl)-3-oxa-1,8-diazaspiro[4.5]decan-2-one] |  | 448 nM | 21% |  |
